The values that follow come from EP4775571A1, “LPAR1 ANTAGONIST AND USE THEREOF” (Haisco Pharmaceutical Group Co., Ltd., priority 2023, dated 2025).

Usually IC50 stands for the concentration that inhibits the measured activity by half.

In one experiment the target is T1, LPAR1 (Homo sapiens, UniProt Q92633).
T1 construct: expressed in transfected cells; host or cells: CHO (CHO-LPA1 cells)
T1 sequence (Q92633 whole entry): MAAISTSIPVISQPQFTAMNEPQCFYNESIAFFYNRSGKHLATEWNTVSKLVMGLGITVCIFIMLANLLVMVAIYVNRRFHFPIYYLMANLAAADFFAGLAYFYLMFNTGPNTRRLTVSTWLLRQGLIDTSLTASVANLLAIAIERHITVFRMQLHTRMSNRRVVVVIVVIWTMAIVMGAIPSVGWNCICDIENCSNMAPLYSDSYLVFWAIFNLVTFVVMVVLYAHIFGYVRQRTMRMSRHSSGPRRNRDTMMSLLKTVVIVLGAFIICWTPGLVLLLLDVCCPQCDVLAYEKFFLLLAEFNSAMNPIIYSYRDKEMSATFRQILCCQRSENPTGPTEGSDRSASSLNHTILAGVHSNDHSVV
Kind of experiment: Cell calcium flux assay (antagonist mode, LPA at EC80, FLIPR). The settings on record: CHO-LPA1 cells, calcium flux, grades; read-out: LPAR1 IC50. In kind it is cell-based. The method, then: • 1) The test compound was diluted to a 400X stock solution with DMSO in a 384-well plate. • 2) 1 µl of compound solution from step 1 was transferred into 39 ul of assay buffer to prepare a 10X working solution in a 384-well plate using a Bravo automated liquid handling platform. • 3) CHO-LPA1 cells were cultured in F12 medium (10% FBS). • 4) When cells reached 80% confluence, the cells were dissociated using 0.25% trypsin-EDTA. • 5) Cell density was determined and the cells were diluted to 4x10e5/ml using F12 (10% FBS). • 6) 30 µl of the cell suspension was dispensed into a 384-well plate (corning 3764#) using a multidrop automated dispenser, resulting in 12,000 cells per well. The plate was incubated at 37°C with 5% CO2 for 18-20 hours. • 7) The medium was replaced with 25 uL of serum-free medium and incubated overnight. • 8) 10 ul of 3.5X loading dye was added to each well of the cell plate. The plate was incubated in the dark at 37°C with 5% CO2 for 0.5-1 hours. • 9) After incubation, 5 µl of the 10X working solution from step 2 was transferred to the cell plate. • 10) The cell plate was incubated in the dark at 25°C for 15 minutes, and then the calcium signals were read. • 11) A 5X agonist (LPA) working solution in 1X HBSS+20 mM HEPES+0.1% BSA was prepared in a 384-well assay plate (greiner 784075#), with at least 20 µl per well. The agonist concentration used in this assay was determined based on the dose-response curve from a prior agonist mode experiment, with the EC80 value serving as the final agonist concentration. • 12) Data were read and saved using FLIPR at room temperature with the specified settings. • 13) The signal values were plotted against compound concentrations, and the curve fitting was performed and the IC50 values were calculated using nonlinear regression analysis in GraphPad Prism software.
IC50 values are represented by grades A, B, C, and D, where A represents 0 < IC50 ≤ 10 nM, B represents 10 nM < IC50 ≤ 50 nM, C represents 50 nM < IC50 ≤ 100 nM, and D represents IC50 > 100 nM. Table 1 Antagonistic activity of the compounds of the present invention against LPAR1
In general terms: A change in cytosolic calcium serves as a functional read-out for many receptors and channels.
As to `C=C1CC(N(C)C(=O)OCc2c(-c3ccc(OCC4C(C(=O)O)C4(F)F)c(C)n3)nnn2C)C1` (single isomer, unassigned) [Compound 32-1], the IC50 was below 10 nM.

For the molecule `C=C1CC(N(C)C(=O)OCc2c(-c3ccc(OCC4C(C(=O)O)C4(F)F)c(C)n3)nnn2C)C1` (single isomer, unassigned) [Compound 32-4], the IC50 is below 10 nM.

`C=C1CC(N(C)C(=O)OCc2c(-c3ccc(NC(=O)C4C(C(=O)O)C4(F)F)c(C)n3)nnn2C)C1` (single isomer, unassigned) [Compound 34-2]: the IC50 was below 10 nM.

For `C=C1CC(CN(C)C(=O)OCc2c(-c3ccc(NC(=O)C4C(C(=O)O)C4(F)F)c(C)n3)nnn2C)C1` (single isomer, unassigned) [Compound 35-2], the IC50 was below 10 nM.

In the case of `Cc1nc(-c2nnn(C)c2CNC(=O)OC2CC(=C(F)F)C2)ccc1OC1CCCCC(C(=O)O)C1` (single isomer, unassigned) [Compound 48-2], the IC50 lay in the range of 10 to 50 nM.

As for `C=C1CC(CN(C)C(=O)OCc2c(-c3ccc(O[C@H]4CCC[C@H](C(=O)O)C4)c(C)n3)nnn2C)C1` [Compound 5], the IC50 was below 10 nM.

As to `CC=C1CC(N(C)C(=O)OCc2c(-c3ccc(O[C@H]4CCC[C@H](C(=O)O)C4)c(C)n3)nnn2C)C1` (some centres unmarked) [Compound 7], the IC50 is below 10 nM.

In the case of `C=C1CC(COC(=O)NCc2c(-c3ccc(O[C@H]4CCC[C@H](C(=O)O)C4)c(C)n3)nnn2C)C1` [Compound 11], the IC50 is below 10 nM.

Regarding `Cc1nc(-c2nnn(C)c2COC(=O)N(C)CC2CC(=C(F)F)C2)ccc1O[C@H]1CCC[C@H](C(=O)O)C1` (some centres unmarked) [Compound 13], the half-inhibitory concentration (IC50) lay in the range of 10 to 50 nM.

On to `Cc1nc(-c2nnn(C)c2COC(=O)N(C)CCOC(F)(F)F)ccc1O[C@H]1CCC[C@H](C(=O)O)C1` [Compound 14], for which the IC50 is below 10 nM.

With `Cc1nc(-c2nnn(C)c2COC(=O)N(C)OC2CCC2)ccc1O[C@H]1CCC[C@H](C(=O)O)C1` [Compound 15], the IC50 lay in the range of 10 to 50 nM.

Consider `CC(C)=C1CC(N(C)C(=O)OCc2c(-c3ccc(O[C@H]4CCC[C@H](C(=O)O)C4)c(C)n3)nnn2C)C1` (some centres unmarked) [Compound 18], for which the IC50 was below 10 nM.

`C=C1CCC(CN(C)C(=O)OCc2c(-c3ccc(O[C@H]4CCC[C@H](C(=O)O)C4)c(C)n3)nnn2C)CC1` [Compound 19]: the IC50 was below 10 nM.

Consider `C=C1CC(N(C)C(=O)OCc2c(-c3ccc(N[C@H]4CCC[C@H](C(=O)O)C4)c(C)n3)nnn2C)C1` [Compound 21], for which the IC50 is below 10 nM.

On to `Cc1nc(-c2nnn(C)c2CNC(=O)OCC2CC(=C(F)F)C2)ccc1O[C@H]1CCC[C@H](C(=O)O)C1` (some centres unmarked) [Compound 23], for which the IC50 is below 10 nM.

For the molecule `C=C1C[C@H](Oc2ccc(-c3nnn(C)c3COC(=O)N(C)CCC)nc2C)C[C@@H](C(=O)O)C1` [Compound 24], the IC50 was below 10 nM.

For `C=C1CC(N(C)C(=O)OCc2c(-c3ccc(OCC4C(C(=O)O)C4(F)F)c(C)n3)nnn2C)C1` (centres unmarked) [Compound 25], the IC50 was below 10 nM.

For the molecule `Cc1nc(-c2nnn(C)c2COC(=O)N(C)CCOC(F)F)ccc1O[C@H]1CCC[C@H](C(=O)O)C1` [Compound 27], the IC50 is below 10 nM.

Consider `Cc1nc(-c2nnn(C)c2COC(=O)N(C)CCSC(F)(F)F)ccc1O[C@H]1CCC[C@H](C(=O)O)C1` [Compound 28], for which the IC50 was below 10 nM.

With `Cc1nc(-c2nnn(C)c2COC(=O)N(C)[C@H]2C[C@@H](OC(F)(F)F)C2)ccc1O[C@H]1CCC[C@H](C(=O)O)C1` [Compound 30], the IC50 is below 10 nM.

In the case of `Cc1nc(-c2nnn(C)c2COC(=O)N(C)[C@H]2C[C@H](OC(F)(F)F)C2)ccc1O[C@H]1CCC[C@H](C(=O)O)C1` [Compound 31], the IC50 is below 10 nM.

As to `C=C1CC(N(C)C(=O)OCc2c(-c3ccc(OCC4(CC(=O)O)CC4)c(C)n3)nnn2C)C1` [Compound 36], the IC50 is below 10 nM.

Regarding `CCCN(C)C(=O)OCc1c(-c2ccc(O[C@H]3CC(=C(F)F)C[C@H](C(=O)O)C3)c(C)n2)nnn1C` [Compound 38], the IC50 is below 10 nM.

Still in this experiment, the particulars now being: antagonistic activity against the LPAR1 receptor; read-out: IC50 values.
With `C=C1CC(CN(C)C(=O)OCc2c(-c3ccc(O[C@H]4CCC[C@H](C(=O)O)C4)c(C)n3)nnn2C)C1` [Compound 5], the IC50 amounted to 2 nM.

Consider `CC=C1CC(N(C)C(=O)OCc2c(-c3ccc(O[C@H]4CCC[C@H](C(=O)O)C4)c(C)n3)nnn2C)C1` (some centres unmarked) [Compound 7], for which the IC50 stood at 2 nM.

For the molecule `C=C1CCC(CN(C)C(=O)OCc2c(-c3ccc(O[C@H]4CCC[C@H](C(=O)O)C4)c(C)n3)nnn2C)CC1` [Compound 19], the IC50 turned out to be 2 nM.
